The source made the active and inactive calls. The rule behind the calls is not given here.
test system: Saccharomyces cerevisiae; assay: Non-competitive inhibition of yeast alpha-glucosidase assessed as decrease in Vmax with constant Km using p-nitrophenyl-alpha-D-glucopyranoside as substrate by Lineweaver-Burk double reciprocal plot analysis

inhibition	Compound
Active	O=C(CCc1ccc(O)cc1)c1c(O)cc(O)c2c(C(=O)c3ccc(O)cc3O)c(-c3ccc(O)cc3)oc12

biological target: not listed separately; assay: Non-competitive inhibition of yeast alpha-glucosidase using p-nitrophenyl-alpha-D-glucopyranoside as substrate by Lineweaver-Burk double reciprocal plot analysis; parameters: species or system Saccharomyces cerevisiae

Ki [nM]	Compound
3400	O=C(CCc1ccc(O)cc1)c1c(O)cc(O)c2c(C(=O)c3ccc(O)cc3O)c(-c3ccc(O)cc3)oc12

biological target: not listed separately; assay: Inhibition of yeast alpha-glucosidase using p-nitrophenyl-alpha-D-glucopyranoside as substrate preincubated with enzyme for 10 mins followed by substrate addition measured after 20 mins by spectrophotometric method; parameters: species or system Saccharomyces cerevisiae

IC50 [nM]	Compound
1800	CCCCCCCCCCCCCC1=C(O)C(=O)C=C(O)C1=O [Rapanone]
2000	CCCCCCCCCCCC1=C(O)C(=O)C2=C(Oc3cc(O)c4c(c3C2(C)C)O[C@@H](c2ccc(O)c(O)c2)[C@H](O)C4)C1=O
> 200000	COc1ccc(-c2coc3cc4c(c(OC)c3c2=O)OCO4)cc1
178000	COc1ccc(-c2coc3cc4c(c(OC)c3c2=O)OCO4)cc1OC
5600	O=C(/C=C/c1ccc2c(c1)[C@@H](C(=O)c1ccc(O)cc1O)[C@H](c1ccc(O)cc1)O2)c1ccc(O)cc1O
2300	O=C(/C=C/c1ccc2c(c1)[C@H](C(=O)c1ccc(O)cc1O)[C@@H](c1ccc(O)cc1)O2)c1ccc(O)cc1O
3200	O=C(/C=C/c1ccc2oc(-c3ccc(O)cc3)c(C(=O)c3ccc(O)cc3O)c2c1)c1ccc(O)cc1O
2500	O=C(/C=C/c1ccc(O)c([C@@H]2C(=O)c3c(O)cc(O)cc3O[C@H]2c2ccc(O)cc2)c1)c1ccc(O)cc1O
26600	O=C(C[C@@H]1C(=O)c2ccc(O)cc2O[C@H]1c1ccc(O)cc1)c1ccc(O)cc1O
2400	CCCCCCCCCCCC1=C(O)C(=O)C=C(O)C1=O [EMBELIN]
1300	O=C(/C=C/c1ccc(O)cc1)c1c(O)cc(O)c2c(C(=O)c3ccc(O)cc3O)c(-c3ccc(O)cc3)oc12
400	O=C(CCc1ccc(O)cc1)c1c(O)cc(O)c2c(C(=O)c3ccc(O)cc3O)c(-c3ccc(O)cc3)oc12
93600	C[C@H]1O[C@H](O[C@H]2[C@H](O)[C@@H](O)[C@@H](O[C@H]3[C@H](O)[C@@H](O)C(O)O[C@@H]3CO)O[C@@H]2CO)[C@H](O)[C@@H](O)[C@@H]1N[C@H]1C=C(CO)[C@@H](O)[C@H](O)[C@H]1O (stereo partly drawn) [ACARBOSE]
6100	COc1ccc(C(=O)[C@@H](c2coc3cc(O)ccc3c2=O)C(c2ccc(O)cc2)c2ccc(O)cc2)c(O)c1
1600	CCCCCCCCCCCCCC1=C(O)C(=O)C2=C(Oc3cc(O)c4c(c3C2(C)C)O[C@@H](c2ccc(O)c(O)c2)[C@H](O)C4)C1=O
1400	CCCCCCCCCCCCCCCC1=C(O)C(=O)C2=C(Oc3cc(O)c4c(c3C2(C)C)O[C@@H](c2ccc(O)c(O)c2)[C@H](O)C4)C1=O
